Test results: PubChem BioAssay AID328 (DTP/NCI, 2004)
Toxic doses and inconclusive results are not listed. Non-standard residues stand in square brackets, D forms with d. Residues, ends and D or L forms follow the SMILES beside them. ξ: configuration not given here. *: point of attachment. ξPhe(4-N(CH2CH2Cl)2) = NC(Cc1ccc(N(CCCl)CCCl)cc1)C(=O)O; Cbz = O=C(OCc1ccccc1)*

Tested on: BDF1 mice, P388 leukemia ip, median survival T/C
Assay: NCI In Vivo Anticancer Drug Screen. Data for tumor model P388 Leukemia (intraperitoneal) in B6D2F1 (BDF1) mice
Conditions: endpoint: median survival time, higher = longer survival
Summary of the method: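 T/C = treated-group survival ÷ vehicle-control survival; tumour transplanted into mice before dosing.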

[1] = dose: 2.5 mg/kg/injection, schedule: Q01DX009 (ip), vehicle: Klucel (hydroxypropylcellulose) (HPC)
[2] = dose: 25.0 mg/kg/injection, schedule: Q04DX003 (ip), vehicle: saline with Tween-80
[3] = dose: 100.0 mg/kg/injection, schedule: Q04DX003 (ip), vehicle: saline with Tween-80
[4] = dose: 25.0 mg/kg/injection, schedule: Q01DX009 (ip), vehicle: Klucel (hydroxypropylcellulose) (HPC)
[5] = dose: 50.0 mg/kg/injection, schedule: Q01DX009 (ip), vehicle: Klucel (hydroxypropylcellulose) (HPC)
[6] = dose: 50.0 mg/kg/injection, schedule: Q01DX009 (ip), vehicle: saline
[7] = dose: 100.0 mg/kg/injection, schedule: Q01DX009 (ip), vehicle: saline
[8] = dose: 3.13 mg/kg/injection, schedule: Q04DX003 (ip), vehicle: saline
[9] = dose: 12.5 mg/kg/injection, schedule: Q01DX009 (ip), vehicle: saline

With CCc1cc2c(cc1C(=O)/C=C\C(=O)O)C(C)(C)CCC2(C)C the T/C [1] was 102 % of control, the T/C (dose: 5.0 mg/kg/injection, schedule: Q01DX009 (ip), vehicle: Klucel (hydroxypropylcellulose) (HPC)) was 99 % of control and the T/C (dose: 10.0 mg/kg/injection, schedule: Q01DX009 (ip), vehicle: Klucel (hydroxypropylcellulose) (HPC)) was 100 % of control.

With CCOC(=O)C(Cc1ccc(N(CCCl)CCCl)cc1)NC(=O)C(Cc1ccccc1)NC(=O)C(NC(=O)CNC(=O)C1CCCN1)C(C)C (stereo unspecified) (H-PGVF[ξPhe(4-N(CH2CH2Cl)2)]-OEt; configuration not given here) the T/C (dose: 5.0 mg/kg/injection, schedule: Q04DX003 (ip), vehicle: water) was 95 % of control, the T/C (dose: 10.0 mg/kg/injection, schedule: Q04DX003 (ip), vehicle: water) was 100 % of control and the T/C (dose: 20.0 mg/kg/injection, schedule: Q04DX003 (ip), vehicle: water) was 176 % of control. For the same compound, the T/C (dose: 40.0 mg/kg/injection, schedule: Q04DX003 (ip), vehicle: water) was 241 % of control and the T/C (dose: 80.0 mg/kg/injection, schedule: Q04DX003 (ip), vehicle: water) was 265 % of control.

O=C(CCCc1ccc(N(CCCl)CCCl)cc1)Nc1ccccc1 was tested, and the T/C (dose: 25.0 mg/kg/injection, schedule: Q01DX009 (ip), vehicle: saline sonified) was 109 % of control, the T/C [2] was 120 % of control and the T/C (dose: 50.0 mg/kg/injection, schedule: Q01DX009 (ip), vehicle: saline sonified) was 100 % of control. For the same compound, the T/C (dose: 100.0 mg/kg/injection, schedule: Q01DX009 (ip), vehicle: saline sonified) was 113 % of control and the T/C [3] was 210 % of control.

For c1ccc2c(c1)C1c3ccccc3C2C2COCC12 (stereo unspecified), the T/C [4] was 105 % of control, the T/C [5] was 110 % of control and the T/C (dose: 75.0 mg/kg/injection, schedule: Q04DX003 (ip), vehicle: Klucel (hydroxypropylcellulose) (HPC)) was 108 % of control. For the same compound, the T/C (dose: 100.0 mg/kg/injection, schedule: Q01DX009 (ip), vehicle: Klucel (hydroxypropylcellulose) (HPC)) was 100 % of control, the T/C (dose: 150.0 mg/kg/injection, schedule: Q04DX003 (ip), vehicle: Klucel (hydroxypropylcellulose) (HPC)) was 104 % of control and the T/C (dose: 300.0 mg/kg/injection, schedule: Q04DX003 (ip), vehicle: Klucel (hydroxypropylcellulose) (HPC)) was 86 % of control.

In the case of COc1cccc(/C=C/[N+](=O)[O-])c1, the T/C (dose: 15.0 mg/kg/injection, schedule: Q01DX009 (ip), vehicle: saline with Tween-80) is reported as 108 % of control, the T/C (dose: 20.0 mg/kg/injection, schedule: Q01DX009 (ip), vehicle: Klucel (hydroxypropylcellulose) (HPC)) is reported as 107 % of control and the T/C (dose: 30.0 mg/kg/injection, schedule: Q01DX009 (ip), vehicle: Klucel (hydroxypropylcellulose) (HPC)) is reported as 115 % of control. For the same compound, the T/C (dose: 60.0 mg/kg/injection, schedule: Q01DX009 (ip), vehicle: saline with Tween-80) was 100 % of control.

For Cc1ncc(O)c(CO)c1O, the T/C [6] was 110 % of control, the T/C [7] was 94 % of control and the T/C (dose: 200.0 mg/kg/injection, schedule: Q01DX009 (ip), vehicle: saline) was 99 % of control. The T/C (dose: 400.0 mg/kg/injection, schedule: Q01DX009 (ip), vehicle: saline) was 107 % of control.

In the case of COc1ccc(Nc2ccnc3cc(Cl)ccc23)cc1CN(CCCl)CCCl, the T/C (dose: 0.11 mg/kg/injection, schedule: Q01DX009 (ip), vehicle: saline) is reported as 100 % of control, the T/C (dose: 0.13 mg/kg/injection, schedule: Q01DX009 (ip), vehicle: saline) is reported as 89 % of control and the T/C (dose: 0.2 mg/kg/injection, schedule: Q01DX009 (ip), vehicle: saline) is reported as 180 % of control. The T/C (dose: 0.22 mg/kg/injection, schedule: Q01DX009 (ip), vehicle: saline) was 117 % of control, the T/C (dose: 0.22 mg/kg/injection, schedule: Q04DX003 (ip), vehicle: saline) was 113 % of control and the T/C (dose: 0.33 mg/kg/injection, schedule: Q04DX003 (ip), vehicle: saline) was 104 % of control. The T/C (dose: 0.44 mg/kg/injection, schedule: Q01DX009 (ip), vehicle: saline) was 166 % of control, the T/C (dose: 0.5 mg/kg/injection, schedule: Q04DX003 (ip), vehicle: saline) was 122 % of control and the T/C (dose: 0.66 mg/kg/injection, schedule: Q01DX009 (ip), vehicle: saline) was 163 % of control. For the same compound, the T/C (dose: 1.0 mg/kg/injection, schedule: Q01DX009 (ip), vehicle: saline) was 163 % of control, the T/C (dose: 1.25 mg/kg/injection, schedule: Q01DX009 (ip), vehicle: Klucel (hydroxypropylcellulose) (HPC)) was 155 % of control and the T/C (dose: 1.5 mg/kg/injection, schedule: Q01DX009 (ip), vehicle: saline) was 176 % of control. The T/C [1] was 155 % of control, the T/C [8] was 154 % of control and the T/C (dose: 4.0 mg/kg/injection, schedule: Q01DX009 (ip), vehicle: saline) was 86 % of control. The T/C (dose: 25.0 mg/kg/injection, schedule: Q04DX003 (ip), vehicle: saline sonified) was 88 % of control.

With Cn1c(C(Cl)Cl)nc2ccccc2c1=O the T/C (dose: 12.5 mg/kg/injection, schedule: Q01DX009 (ip), vehicle: Klucel (hydroxypropylcellulose) (HPC)) was 100 % of control, the T/C [4] was 100 % of control and the T/C [5] was 95 % of control. The T/C (dose: 75.0 mg/kg/injection, schedule: Q01DX009 (ip), vehicle: Klucel (hydroxypropylcellulose) (HPC)) was 100 % of control, the T/C (dose: 115.0 mg/kg/injection, schedule: Q01DX009 (ip), vehicle: Klucel (hydroxypropylcellulose) (HPC)) was 114 % of control and the T/C (dose: 170.0 mg/kg/injection, schedule: Q01DX009 (ip), vehicle: Klucel (hydroxypropylcellulose) (HPC)) was 95 % of control.

In the case of CCOC/C(C)=C/Cl, the T/C (dose: 50.0 mg/kg/injection, schedule: Q01DX009 (ip), vehicle: acetone) is reported as 104 % of control, the T/C (dose: 100.0 mg/kg/injection, schedule: Q01DX009 (ip), vehicle: acetone) is reported as 116 % of control and the T/C (dose: 200.0 mg/kg/injection, schedule: Q01DX009 (ip), vehicle: acetone) is reported as 112 % of control.

In the case of CC(=O)OC1C=COC(C)C1OC(C)=O (stereo unspecified), the T/C [6] is reported as 98 % of control, the T/C [7] is reported as 114 % of control and the T/C (dose: 100.0 mg/kg/injection, schedule: Q04DX003 (ip), vehicle: saline) is reported as 100 % of control. The T/C (dose: 200.0 mg/kg/injection, schedule: Q04DX003 (ip), vehicle: saline) was 99 % of control and the T/C (dose: 400.0 mg/kg/injection, schedule: Q04DX003 (ip), vehicle: saline) was 100 % of control.

In the case of CCC(C#N)C1=CCCCCC1 (stereo unspecified), the T/C [2] is reported as 109 % of control, the T/C (dose: 50.0 mg/kg/injection, schedule: Q04DX003 (ip), vehicle: saline with Tween-80) is reported as 121 % of control and the T/C [3] is reported as 118 % of control.

With O=C(NCCCl)N(CCCl)C(=O)Oc1c(Cl)cc(Cl)cc1Cl the T/C (dose: 50.0 mg/kg/injection, schedule: Q01DX005 (ip), vehicle: saline with Tween-80) was 100 % of control, the T/C (dose: 100.0 mg/kg/injection, schedule: Q01DX005 (ip), vehicle: saline with Tween-80) was 112 % of control and the T/C (dose: 200.0 mg/kg/injection, schedule: Q01DX005 (ip), vehicle: saline with Tween-80) was 100 % of control.

CO[C@@H]1C=C[C@@]23c4cc5c(cc4CN(C[C@@H]2O)[C@H]3C1)OCO5 was tested, and the T/C (dose: 18.75 mg/kg/injection, schedule: Q01DX010 (ip), vehicle: saline) was 104 % of control and the T/C (dose: 37.5 mg/kg/injection, schedule: Q01DX010 (ip), vehicle: saline) was 104 % of control.

In the case of O=C(O)C1CCCN1C(=O)C1CCCN1C(=O)OCc1ccccc1 (stereo not drawn) (Cbz-Pro-Pro-OH; configuration not given here), the T/C (dose: 50.0 mg/kg/injection, schedule: Q01DX005 (ip), vehicle: saline) is reported as 101 % of control, the T/C (dose: 100.0 mg/kg/injection, schedule: Q01DX005 (ip), vehicle: saline) is reported as 101 % of control and the T/C (dose: 200.0 mg/kg/injection, schedule: Q01DX005 (ip), vehicle: saline) is reported as 107 % of control.

COC(=O)C1=C(C)NC(C)=C(C(=O)OC)C1C(C)SC#N (stereo unspecified) was tested, and the T/C (dose: 50.0 mg/kg/injection, schedule: Q01DX009 (ip), vehicle: saline with Tween-80) was 107 % of control, the T/C (dose: 100.0 mg/kg/injection, schedule: Q01DX009 (ip), vehicle: saline with Tween-80) was 109 % of control and the T/C (dose: 200.0 mg/kg/injection, schedule: Q01DX009 (ip), vehicle: saline with Tween-80) was 97 % of control.

C#CCOCCBr was tested, and the T/C (dose: 22.0 mg/kg/injection, schedule: Q01DX009 (ip), vehicle: saline) was 122 % of control.

O=[N+]([O-])C(CO)(CO)CC(F)(F)F was tested, and the T/C (dose: 3.13 mg/kg/injection, schedule: Q01DX009 (ip), vehicle: saline) was 100 % of control, the T/C [8] was 100 % of control and the T/C (dose: 6.25 mg/kg/injection, schedule: Q01DX009 (ip), vehicle: saline) was 104 % of control. The T/C (dose: 6.25 mg/kg/injection, schedule: Q04DX003 (ip), vehicle: saline) was 100 % of control and the T/C [9] was 90 % of control.

For CC1(C)c2c3ccccc3cc3cccc(c23)[S+]1c1ccccc1 (stereo unspecified), the T/C (dose: 10.0 mg/kg/injection, schedule: Q01DX009 (ip), vehicle: saline with Tween-80) was 120 % of control.

COc1c2ccoc2nc2c(OC)c3c(cc12)OCO3 was tested, and the T/C [9] was 109 % of control, the T/C (dose: 25.0 mg/kg/injection, schedule: Q01DX009 (ip), vehicle: saline) was 107 % of control and the T/C [6] was 109 % of control.
